Data taken from paper PMC11091828 (Journal of medicinal chemistry, 2023).

Assays:
hMOR = hMOR (Homo sapiens, UniProt P35372); experiment: hMOR radioligand binding, competition with [3H]-DAMGO, HEK293 membranes; conditions: for improved MOR affinity with respect to 2-THP unsubstituted analog: 122 vs 115, 121 vs 112
mMOR [1] = target: T1, mMOR (Mus musculus, UniProt P42866); experiment: BRET Nb33 recruitment at MOR, HEK 293T cells; assay type: cell-based; conditions: read-out: MOR Nb33 recruitment Emax ± SEM
mMOR [2] = target: T1, mMOR; experiment: BRET arrestin-3 recruitment at MOR with overexpressed GRK2, HEK 293T cells; assay type: cell-based; conditions: NA = No Activity at the highest tested concentration
hD3R [3] = target: T2, hD3R (Homo sapiens, UniProt P35462); assay type: binding; conditions: from Ki values
hD3R [4] = target: T2, hD3R; experiment: BRET D3R-mediated GαoA G protein activation; assay type: cell-based; conditions: agonist mode; NA = No Activity at the highest tested concentration
mMOR [5] = target: T1, mMOR; experiment: BRET MOR-mediated Gαi2 G protein activation; assay type: cell-based; conditions: NA = No Activity at the highest tested concentration

T1 sequence (P42866 whole entry): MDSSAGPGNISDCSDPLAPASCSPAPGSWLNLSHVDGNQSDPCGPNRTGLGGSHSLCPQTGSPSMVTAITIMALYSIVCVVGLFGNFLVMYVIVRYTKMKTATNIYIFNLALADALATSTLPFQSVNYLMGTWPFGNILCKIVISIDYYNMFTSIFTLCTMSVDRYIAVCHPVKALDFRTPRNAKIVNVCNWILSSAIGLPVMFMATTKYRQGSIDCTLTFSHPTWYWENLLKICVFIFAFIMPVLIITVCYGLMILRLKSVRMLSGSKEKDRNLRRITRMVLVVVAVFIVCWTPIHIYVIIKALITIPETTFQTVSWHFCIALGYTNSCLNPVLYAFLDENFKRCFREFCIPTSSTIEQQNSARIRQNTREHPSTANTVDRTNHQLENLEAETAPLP
hMOR, sequence (P35372 whole entry): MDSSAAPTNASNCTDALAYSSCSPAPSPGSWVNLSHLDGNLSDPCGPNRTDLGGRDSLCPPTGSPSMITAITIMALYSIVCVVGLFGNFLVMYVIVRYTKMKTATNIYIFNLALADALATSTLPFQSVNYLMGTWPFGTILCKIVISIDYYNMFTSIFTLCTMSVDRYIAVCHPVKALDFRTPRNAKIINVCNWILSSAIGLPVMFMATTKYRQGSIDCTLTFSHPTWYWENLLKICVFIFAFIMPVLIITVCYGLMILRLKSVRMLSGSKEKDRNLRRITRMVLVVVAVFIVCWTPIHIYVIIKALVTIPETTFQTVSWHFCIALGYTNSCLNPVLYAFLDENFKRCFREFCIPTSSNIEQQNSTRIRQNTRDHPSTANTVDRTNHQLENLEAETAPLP
T2 sequence (P35462 whole entry): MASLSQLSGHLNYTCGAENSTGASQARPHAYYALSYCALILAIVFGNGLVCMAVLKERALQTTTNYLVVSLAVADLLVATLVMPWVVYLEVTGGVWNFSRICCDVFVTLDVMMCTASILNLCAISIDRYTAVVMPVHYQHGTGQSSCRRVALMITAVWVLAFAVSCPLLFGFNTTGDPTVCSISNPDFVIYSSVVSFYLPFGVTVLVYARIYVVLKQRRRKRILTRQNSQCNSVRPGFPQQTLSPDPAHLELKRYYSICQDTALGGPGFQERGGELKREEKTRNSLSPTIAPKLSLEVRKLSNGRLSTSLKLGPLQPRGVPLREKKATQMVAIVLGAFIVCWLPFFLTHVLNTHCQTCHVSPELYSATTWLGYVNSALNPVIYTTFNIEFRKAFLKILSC

Compound: CN(C)C(=O)C(CCN1C[C@H](O)CC1=CN1CCN(c2cccc(Cl)c2Cl)CC1)(c1ccccc1)c1ccccc1 (mixture of isomers) [compound 26, (R)-4-(2-((4-(2,3-Dichlorophenyl)piperazin-1-yl)methylene)-4-hydroxypyrrolidin-1-yl)-N,N-dimethyl-2,2-diphenylbutanamide]
- Ki (hMOR): 23.8 nM

Compound: CCCN(CCC(C(=O)N(C)C)(c1ccccc1)c1ccccc1)[C@@H]1C[C@H]1c1ccc(Cl)cc1 (relative stereo) [compound 80, rel-trans-4-((2-(4-Chlorophenyl)cyclopropyl)(propyl)amino)-N,N-dimethyl-2,2-diphenylbutanamide]
- Emax (mMOR [1]): 27.7 ± 4.9%

Compound: COc1ccccc1[C@@H]1C[C@H]1NCCC(C(=O)N(C)C)(c1ccccc1)c1ccccc1 (relative stereo) [compound 84, rel-trans-4-((2-(2-Methoxyphenyl)cyclopropyl)amino)-N,N-dimethyl-2,2-diphenylbutanamide]
- Emax (mMOR [1]): 31 ± 2.3%

Compound: Clc1ccc([C@@H]2C[C@H]2NCCC2(c3ccccn3)CCOC3(CCCC3)C2)cc1 (relative stereo) [compound 121, rel-trans-2-(4-Chlorophenyl)-N-(2-(9-(pyridin-2-yl)-6-oxaspiro[4.5]decan-9-yl)ethyl)cyclopropan-1-amine]
- improved MOR affinity with respect to 2-THP unsubstituted analog (hMOR): > 10 fold
- MOR arr3 recruitment (+ GRK2) pEC50 ± SEM (mMOR [2]): 6.58 ± 0.08
- D3R selectivity over D2R (hD3R [3]): 15 fold

Compound: CCc1cc(Cl)c(OC)c(N2CCN(C[C@@H]3C[C@@H](O)CN3CCC(C(=O)N(C)C)(c3ccccc3)c3ccccc3)CC2)c1 [compound 34, 4-((2S,4R)-2-((4-(3-Chloro-5-ethyl-2-methoxyphenyl)piperazin-1-yl)methyl)-4-hydroxypyrrolidin-1-yl)-N,N-dimethyl-2,2-diphenylbutanamide]
- D3R GoA activation pEC50 ± SEM (hD3R [4]): 7.60 ± 0.99

Compound: CN(C)C(=O)C(CCN1C[C@H](F)C[C@H]1C(=O)NCCCCN1CCN(c2cccc(C(F)(F)F)n2)CC1)(c1ccccc1)c1ccccc1 [compound 56, (2S,4R)-1-(4-(Dimethylamino)-4-oxo-3,3-diphenylbutyl)-4-fluoro-N-(4-(4-(6-(trifluoromethyl)pyridin-2-yl)piperazin-1-yl)butyl)pyrrolidine-2-carboxamide]
- MOR Gi2 activation pEC50 ± SEM (mMOR [5]): 5.94 ± 0.08

Compound: FC(F)(F)c1cccc(N2CCN(CCC3(c4ccccn4)CCOC4(CCCC4)C3)CC2)n1 (stereo not drawn) [compound 122, 1-(2-(9-(Pyridin-2-yl)-6-oxaspiro[4.5]decan-9-yl)ethyl)-4-(6-(trifluoromethyl)pyridin-2-yl)piperazine]
- improved MOR affinity with respect to 2-THP unsubstituted analog (hMOR): > 10 fold
